This is an account of results in US8669256B2, “Substituted thieno[2,3-b]pyrazine compounds as modulators of B-Raf kinase activity” (Merck Sharp & Dohme B.V., priority 2010, dated 2014).

Structures are written as SMILES. Like-named read-outs stand apart in the source and are kept apart here.

The target of experiment [1] is T1, GST-tagged human recombinant active B-Raf (Δ1-415) (Homo sapiens, UniProt P15056).
T1 construct: GST; purchased Upstate/Millipore
Kind of experiment: B-Raf kinase activity, IMAP coupled assay (B-Raf/MEK1/ERK2, fluorescence polarization). In kind it is biochemical. Conditions: bounds also given as pIC50 (>6, >7, >8); 60 min pre-incubation with compound, ATP 50 μM; read-out: IC50, B-Raf IMAP assay. Put shortly: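 Coupled cascade: GST-B-Raf (Δ1-415; 0.2 U/ml) pre-incubated with compound (1% DMSO) 60 min at room temperature, then unactive MEK1 (64 ng/ml), unactive ERK2 (600 ng/ml), 50 nM fluorescein-Erktide and 50 μM ATP added for 60 min at 30 °C, pH 7.2 Tris buffer. Phosphopeptide captured on IMAP beads (60 min); fluorescence polarization read.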
Background: Fluorescence polarisation rises when a labelled molecule tumbles more slowly, as on binding a larger partner.

The test system of experiment [2] is phosphorylation of ERK1/2 in A375 cells containing mutant B-Raf (V600E). Kind of experiment: Phospho-ERK FACE assay in A375 (B-Raf mutated) melanoma cell line. In kind it is cell-based. Conditions: Homo sapiens, read-out: IC50, A375 melanoma phospho-ERK assay. As for the experimental part: The B-Raf activity can also be determined in a B-Raf mutated melanoma cell line, such as the A375 cell line. Inhibition of phosphorylation of ERK1/2 can be measured using a Fast Activated Cell-based ELISA (FACE) from Active Motif (Carlsbad, U.S.A., CA). E.g. A375 cells, which are cells containing a mutant form of B-Raf (V600E) and thus contain high levels of phosphorylated ERK, can be incubated with Raf inhibitors. Then cells can be incubated with anti-phospho-ERK antibody and subsequently with horse radish peroxidase (HRP)-labeled secondary antibody. Finally, chemiluminescence reagents can be added, which react with HRP, to give a luminescence signal.
Determination of B-Raf Activity Using a A375 (B-Raf mutated) Melanoma Cell Line (Phospho-ERK FACE Assay)
Inhibition of phosphorylation of ERK1/2 was measured using a Fast Activated Cell-based ELISA (FACE) from Active Motif (Carlsbad, U.S.A., CA). Briefly, A375 cells, which are cells containing a mutant form of B-Raf (V600E) and thus contain high levels of phosphorylated ERK, were incubated for 2 hours with Raf inhibitors. Then, cells were fixed with paraformaldehyde, washed and following quenching and blocking, incubated with anti-phospho-ERK antibody, and as a control, on a separate plate, with ERK antibody. After washing and removal of the primary antibodies, the fixed cells were incubated with horse radish peroxidase (HRP)-labeled secondary antibody. Finally, chemiluminescence reagents were added, which react with HRP, to give a luminescence signal.
Detailed protocol: A375 cells were cultured in DMEM/F12 (Dulbecco's Modified Eagle Medium Nutrient Mixture F-12) (Invitrogen), supplemented with 10% fetal bovine serum (FBS) (Biowhittaker), 100 U/ml penicillin G and 100 μg/ml streptomycin (Gibco). For the phospho ERK assay, cells were seeded at a density of 15,000 cells/well in 100 μl culture medium in 96-well plates and incubated in a humidified atmosphere at 5% CO2 and 37° C. After 24 hours, cells were washed with DMEM/F12 supplemented with 0.1% FBS (assay medium 120 μl of assay medium was added and the plates were incubated overnight in a humidified atmosphere at 5% CO2 and 37° C. The next day, the assay medium was removed and compounds diluted in assay medium were added to the cells. Final DMSO concentration in the assay was 1%. After 2 hours incubation, cells were fixed by replacing the assay medium with 100 μl of 4% formaldehyde (Bio-Connect, Huissen, The Netherlands) in PBS. After 20 minutes of incubation at room temperature, cells were washed three times with 200 μl wash buffer (0.1% (vol/vol) Triton X-100 in PBS from the FACE kit) followed by an incubation of 20 minutes with 100 μl quenching buffer, containing 1% (vol/vol) hydrogen peroxide (Thermo Fisher Scientific) and 0.1% (vol/vol) sodium azide (Sigma-Aldrich) in phosphate-buffered saline. Cells were washed two times with wash buffer, incubated for 1 hour with 100 μl antibody blocking buffer from the kit and washed two times again. 40 μl of diluted antibody against phosphorylated ERK1/2 (1:500 from the FACE kit) was added and incubated overnight at 4° C. The phospho-ERK antibody has been raised against a synthetic phospho-peptide corresponding to residues Thr202 and Tyr204 of human ERK1 and Thr185 and Tyr187 of human ERK2. For the detection of total ERK, antibody against ERK1 and ERK2 (1:500 from the FACE kit) was added. The excessive primary antibody was washed out, and 100 μl diluted HRP-conjugated anti-rabbit IgG (1:2000 from the FACE kit) was added and incubated for 1 hour at room temperature. Secondary antibody was removed and cells were washed 3 times with wash buffer and twice with PBS. 50 μl per well of FACE chemiluminescent working solution was added. Chemiluminescence was measured on an Envision Multilabel reader.

Where [3] appears, read: A-375, A375 cells, 2 hours incubation, between 1 μM and 100 nM (6<pIC50<7).
[4] abbreviates: A-375, A375 cells, 2 hours incubation, class between 10 μM and 1 μM (5<pIC50<6).
The mark [5] stands for this setting: A-375, A375 cells, 2 hours incubation, class given as below 100 nM (pIC50>7).

T1 sequence (P15056 416-766, stated change not applied): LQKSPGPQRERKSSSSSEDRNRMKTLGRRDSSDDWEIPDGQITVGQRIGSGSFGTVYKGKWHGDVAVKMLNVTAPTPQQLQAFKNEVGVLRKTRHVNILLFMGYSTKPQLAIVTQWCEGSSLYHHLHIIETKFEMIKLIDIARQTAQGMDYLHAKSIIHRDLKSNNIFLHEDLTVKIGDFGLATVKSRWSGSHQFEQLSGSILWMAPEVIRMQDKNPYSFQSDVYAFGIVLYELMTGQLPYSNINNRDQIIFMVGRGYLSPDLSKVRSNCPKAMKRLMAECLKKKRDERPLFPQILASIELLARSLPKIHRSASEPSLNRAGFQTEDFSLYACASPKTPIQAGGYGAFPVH

Broadly, the IC50 is the point on the concentration scale where inhibition reaches its midpoint. Consider `Cc1ccc(NC(=O)c2ccc(C)c(C(F)(F)F)c2)cc1NC(=O)c1cc2nccnc2s1` [Example 31, N-(2-methyl-5-(4-methyl-3-(trifluoromethyl)benzamido)phenyl)thieno[2,3-b]pyrazine-6-carboxamide], for which the IC50 is below 100 nM in experiment [1] and 100 to 1000 nM in experiment [2] (setting [3]).

Turning to `Cc1ccc(NC(=O)c2cc(F)cc(C(F)(F)F)c2)cc1NC(=O)c1cc2nccnc2s1` [Example 32, N-(5-(3-fluoro-5-(trifluoromethyl)benzamido)-2-methylphenyl)thieno[2,3-b]pyrazine-6-carboxamide], the values for the IC50 in experiment [1] and in experiment [2] (setting [4]) were below 100 nM and 1000 to 10000 nM, respectively.

For `Cc1ccc(NC(=O)c2cccc(OC(F)(F)F)c2)cc1NC(=O)c1cc2nccnc2s1` [Example 35, N-(2-methyl-5-(3-(trifluoromethoxy)benzamido)phenyl)thieno[2,3-b]pyrazine-6-carboxamide], the IC50 in experiment [1] is below 100 nM; in experiment [2] (setting [4]) it was 1000 to 10000 nM.

With `Cc1ccc(NC(=O)c2cccc(C3(C#N)CCOCC3)c2)cc1NC(=O)c1cc2nccnc2s1` [Example 36, N-(5-(3-(4-cyanotetrahydro-2H-pyran-4-yl)benzamido)-2-methylphenyl)thieno[2,3-b]pyrazine-6-carboxamide], the values for the IC50 in experiment [1] and in experiment [2] (setting [4]) were below 100 nM and 1000 to 10000 nM, respectively.

`Cc1ccc(NC(=O)c2ccc(F)c(C(F)(F)F)c2)cc1NC(=O)c1cc2nccnc2s1` [Example 37, N-(5-(4-fluoro-3-(trifluoromethyl)benzamido)-2-methylphenyl)thieno[2,3-b]pyrazine-6-carboxamide]: the IC50 in experiment [1] is below 100 nM; in experiment [2] (setting [4]) it was 1000 to 10000 nM.

`Cc1ccc(NC(=O)c2cccc(C(F)(F)F)c2F)cc1NC(=O)c1cc2nccnc2s1` [Example 38, N-(5-(2-fluoro-3-(trifluoromethyl)benzamido)-2-methylphenyl)thieno[2,3-b]pyrazine-6-carboxamide]: the IC50 in experiment [1] was below 100 nM; in experiment [2] (setting [3]), 100 to 1000 nM.

In the case of `Cc1ccc(NC(=O)c2cc(OC(F)(F)F)ccc2F)cc1NC(=O)c1cc2nccnc2s1` [Example 39, N-(5-(2-fluoro-5-(trifluoromethoxy)benzamido)-2-methylphenyl)thieno[2,3-b]pyrazine-6-carboxamide], the IC50 was below 100 nM in experiment [1] and 1000 to 10000 nM in experiment [2] (setting [4]).

Regarding `Cc1ccc(NC(=O)Nc2cccc(C(C)(C)C#N)c2)cc1NC(=O)c1cc2nccnc2s1` [Example 40, N-(5-(3-(3-(2-cyanopropan-2-yl)phenyl)ureido)-2-methylphenyl)thieno[2,3-b]pyrazine-6-carboxamide], the IC50 in experiment [1] is below 100 nM; in experiment [2] (setting [4]), 1000 to 10000 nM.

Take `Cc1ccc(NC(=O)c2cccc(C(C)(C)C#N)c2)cc1NC(=O)c1sc2nccnc2c1Br` [Example 41, 7-bromo-N-(5-(3-(2-cyanopropan-2-yl)benzamido)-2-methylphenyl)thieno[2,3-b]pyrazine-6-carboxamide]: the IC50 was below 10 nM in experiment [1] and 100 to 1000 nM in experiment [2] (A-375, 2 h).

Turning to `Cc1ccc(NC(=O)c2cccc(C(C)(C)C#N)c2)cc1NC(=O)c1sc2nccnc2c1C` [Example 42, N-(5-(3-(2-cyanopropan-2-yl)benzamido)-2-methylphenyl)-7-methylthieno[2,3-b]pyrazine-6-carboxamide], the concentration for half-maximal inhibition (IC50) in experiment [1] is below 10 nM; in experiment [2] (setting [3]) it was 100 to 1000 nM.

As for `Cc1ccc(NC(=O)c2cccc(C(C)(C)C#N)c2)cc1NC(=O)c1sc2nccnc2c1C#N` [Example 43, 7-cyano-N-(5-(3-(2-cyanopropan-2-yl)benzamido)-2-methylphenyl)thieno[2,3-b]pyrazine-6-carboxamide], the figures for the IC50 in experiment [1] and in experiment [2] (setting [3]) were below 10 nM and 100 to 1000 nM, respectively.

Take `C=Cc1c(C(=O)Nc2cc(NC(=O)c3cccc(C(C)(C)C#N)c3)ccc2C)sc2nccnc12` [Example 44, N-(5-(3-(2-cyanopropan-2-yl)benzamido)-2-methylphenyl)-7-vinylthieno[2,3-b]pyrazine-6-carboxamide]: the values for the half-maximal inhibitory concentration (IC50) in experiment [1] and in experiment [2] (setting [3]) were below 10 nM and 100 to 1000 nM, respectively.

For the molecule `CCNc1c(C(=O)Nc2cc(NC(=O)c3cccc(C(C)(C)C#N)c3)ccc2C)sc2nccnc12` [Example 46, N-(5-(3-(2-cyanopropan-2-yl)benzamido)-2-methylphenyl)-7-(ethylamino)thieno[2,3-b]pyrazine-6-carboxamide], the IC50 in experiment [1] and in experiment [2] (setting [5]) was below 100 nM throughout.

`Cc1ccc(NC(=O)c2cccc(C(C)(C)C#N)c2)cc1NC(=O)c1sc2ncc(C#N)nc2c1N` [Example 49, 7-amino-2-cyano-N-(5-(3-(2-cyanopropan-2-yl)benzamido)-2-methylphenyl)thieno[2,3-b]pyrazine-6-carboxamide]: the IC50 in experiment [1] is below 100 nM; in experiment [2] (setting [3]), 100 to 1000 nM.

Regarding `Cc1ccc(NC(=O)c2cccc(C(C)(C)C#N)c2)cc1NC(=O)c1sc2ncc(-c3ccco3)nc2c1N` [Example 50, 7-amino-N-(5-(3-(2-cyanopropan-2-yl)benzamido)-2-methylphenyl)-2-(furan-2-yl)thieno[2,3-b]pyrazine-6-carboxamide], the IC50 in experiment [1] and in experiment [2] (setting [5]) was below 100 nM throughout.

As to `CC(C)(C#N)c1cccc(C(=O)Nc2ccc(Br)c(NC(=O)c3cc4nccnc4s3)c2)c1` [Example 51, N-(2-bromo-5-(3-(2-cyanopropan-2-yl)benzamido)phenyl)thieno[2,3-b]pyrazine-6-carboxamide], the figures for the IC50 in experiment [1] and in experiment [2] (setting [3]) were below 100 nM and 100 to 1000 nM, respectively.

For the molecule `Cc1ccc(NC(=O)c2cccc(C(F)(F)F)c2)cc1NC(=O)c1cc2nc(-c3cccnc3)cnc2s1` [Example 53, N-(2-methyl-5-(3-(trifluoromethyl)benzamido)phenyl)-2-(pyridin-3-yl)thieno[2,3-b]pyrazine-6-carboxamide], the IC50 in experiment [1] is below 100 nM; in experiment [2] (setting [3]), 100 to 1000 nM.

For the molecule `Cc1ccc(NC(=O)c2cccc(C(F)(F)F)c2)cc1NC(=O)c1sc2nccnc2c1N` [Example 54, 7-amino-N-(2-methyl-5-(3-(trifluoromethyl)benzamido)phenyl)thieno[2,3-b]pyrazine-6-carboxamide], the results for the IC50 in experiment [1] and in experiment [2] (setting [5]) were below 10 nM and below 100 nM, respectively.

As for `CC(C)(C#N)c1cccc(C(=O)Nc2cc(NC(=O)c3cc4nccnc4s3)c(F)cc2F)c1` [Example 55, N-(5-(3-(2-cyanopropan-2-yl)benzamido)-2,4-difluorophenyl)thieno[2,3-b]pyrazine-6-carboxamide], the IC50 in experiment [1] is below 100 nM; in experiment [2] (setting [4]), 1000 to 10000 nM.

Regarding `Cc1ccc(NC(=O)c2cccc(C(C)(C)C#N)c2)cc1NC(=O)c1cc2ncc(NCCN(C)C)nc2s1` [Example 61, N-(5-(3-(2-cyanopropan-2-yl)benzamido)-2-methylphenyl)-3-(2-(dimethylamino)ethylamino)thieno[2,3-b]pyrazine-6-carboxamide], the IC50 in experiment [1] was below 10 nM; in experiment [2] (setting [3]) it was 100 to 1000 nM.
